From patent US9714235B2, “Quinazoline derivatives, compositions thereof, and use as pharmaceuticals” (Shanghai Fochon Pharmaceutical Co., Ltd., priority 2013, dated 2017)
Values belong to the compound of their own block, whether it stands above or below them.

Key:
NCI-N87 tumor cells = assay: N87 tumor in vivo study; design: species or system Female BALB/cA-nude mice; conditions: for Average Tumor Volume Day 21 / Inhibition rate / T/C: Day 21; for Average Tumor Volume Day 0: Day 0 (baseline)
Procedure: Female BALB/cA-nude mice were implanted with NCI-N87 tumor cells. Tumor measurements were recorded twice a week. Randomize animals to groups (Day 0) when tumors reached an average size of 60-150 mm^3. Group size was 6 mice. Test compound was administered p.o. once daily for 21 days. Tumor inhibition values were determined at Day 21.
Tumor volume (V) was calculated as follow: V=½×a×b, where a and b are the length and width of the tumor respectively. Relative tumor proliferation rate was calculated as follow: T/C (%)=(T−T0)/(C−C0)×100, where T and C are the tumor volume of test compound group and control group on Day 21, T0 and C0 are the tumor volume of test compound group and control group on Day 0.

[1] = system: BT474 (EGFR overexpression) cells; assay: Cell proliferation assay (MTS), BT474; format: cell-based; conditions: Homo sapiens, BT-474, 168 h, 7 d incubation
Procedure: (§1) Cell Proliferation Asssay
(§2) Materials and Preparation of Reagents
(§3) MTS testing kit was purchased from Promega. […] Dimethyl sulfoxide (DMSO) was purchased from Sigma.
(§4) Inhibition Activity of Cell Proliferation
(§5) In this assay, inhibition of EGFR and ErbB2 was detected by the inhibition of BT474 and N87 cells proliferation. BT474 cells were cultured in culture flasks to 40-80% confluence in DMEM plus 10% fetal bovine serum. […] Cells were collected and plated onto 96-well plates at desired cell density (BT474: 1000 cells/well; N87: 1000 cells/well). BT474 plates were incubated 48 h at 37° C., with 5% CO2 to adhere. N87 plates were incubated overnight at 37° C., with 5% CO2 to adhere. […] Place BT474 plates at 37° C., with 5% CO2 for 7d. Place N87 plates at 37° C., with 5% CO2 for 72 h. After removing the medium, 20 μl MTS/100 μl medium mixture solution were added to each well and incubate the plates for exactly 2 hours. Measure absorbance at 490 nm and 650 nm (reference wavelength). IC50 was calculated using GraphPad Prism 5.0.

[2] = system: N87 (EGFR and ErbB2 overexpression) cells; assay: Cell proliferation assay (MTS), N87; format: cell-based; conditions: 72 h incubation
Procedure: as §1, §2, §3, §4, §5

[3] = 2 mg/kg p.o. once daily for 21 days
[4] = 5 mg/kg p.o. once daily for 21 days
[5] = 10 mg/kg p.o. once daily for 21 days
[6] = 320 mg/kg p.o. once daily for 21 days
[7] = 20 mg/kg p.o. once daily for 21 days

Structure (SMILES): O=C(/C=C/CN1CCC1CO)Nc1cc2c(Nc3ccc(F)c(Cl)c3)ncnc2cc1OC[C@H]1[C@@H]2COC[C@@H]21 (stereo partly drawn) [Example 18, (E)-N-(7-((1R,5S,6r)-3-oxabicyclo[3.1.0]hexan-6-ylmethoxy)-4-(3-chloro-4-fluorophenylamino)quinazolin-6-yl)-4-(2-(hydroxymethyl)azetidin-1-yl)but-2-enamide]
IC50 [2]: 11.2 nM
IC50 [1]: 10.8 nM

Structure (SMILES): CS(=O)(=O)CCNCc1ccc(-c2ccc3ncnc(Nc4ccc(OCc5cccc(F)c5)c(Cl)c4)c3c2)o1 [Lapatinib, reference compound]
Inhibition rate (NCI-N87 tumor cells; [6]): 87%
T/C (NCI-N87 tumor cells; [6]): 13%
Average Tumor Volume Day 0 (NCI-N87 tumor cells): 124.4 ± 7.3 mm^3

Structure (SMILES): O=C(/C=C/CN1CCC1CO)Nc1cc2c(Nc3ccc(F)c(Cl)c3)ncnc2cc1O[C@H]1CCOC1 (stereo partly drawn) [Example 11, (E)-N-(4-(3-chloro-4-fluorophenylamino)-7-((S)-tetrahydrofuran-3-yloxy)quinazolin-6-yl)-4-(2-(hydroxymethyl)azetidin-1-yl)but-2-enamide]
IC50 [2]: 9.6 nM
IC50 [1]: 3.9 nM

Structure (SMILES): O=C(/C=C/CN1CCC1CO)Nc1cc2c(Nc3ccc(F)c(Cl)c3)ncnc2cc1OCC1CC1 (centres unmarked) [Example 8, (E)-N-(4-(3-chloro-4-fluorophenylamino)-7-(cyclopropylmethoxy)quinazolin-6-yl)-4-(2-(hydroxymethyl)azetidin-1-yl)but-2-enamide]
IC50 [2]: 11.8 nM
IC50 [1]: 9.5 nM

Structure (SMILES): COCC1CCN1C/C=C/C(=O)Nc1cc2c(Nc3ccc(F)c(Cl)c3)ncnc2cc1O[C@H]1CCOC1 (stereo partly drawn) [Example 12, (E)-N-(4-(3-chloro-4-fluorophenylamino)-7-((S)-tetrahydrofuran-3-yloxy)quinazolin-6-yl)-4-(2-(methoxymethyl)azetidin-1-yl)but-2-enamide]
IC50 [2]: 1.5 nM
IC50 [1]: 2.9 nM

Structure (SMILES): CN(C)C/C=C/C(=O)Nc1cc2c(Nc3ccc(F)c(Cl)c3)ncnc2cc1O[C@H]1CCOC1 [Afatinib, reference compound]
Average Tumor Volume Day 21 (NCI-N87 tumor cells; [7]): 72.9 ± 7.9 mm^3
Inhibition rate (NCI-N87 tumor cells; [7]): 138%
T/C (NCI-N87 tumor cells; [7]): −38%
Average Tumor Volume Day 0 (NCI-N87 tumor cells; 20 mg/kg p.o. once daily): 117.2 ± 8.3 mm^3

Structure (SMILES): COCCOc1cc2ncnc(Nc3ccc(F)c(Cl)c3)c2cc1NC(=O)/C=C/CN1CC[C@@H]1COC [Example 6, (R,E)-N-(4-(3-chloro-4-fluorophenylamino)-7-(2-methoxyethoxy)quinazolin-6-yl)-4-(2-(methoxymethyl)azetidin-1-yl)but-2-enamide]
Average Tumor Volume Day 21 (NCI-N87 tumor cells; [4]): 176.3 ± 24.2 mm^3
Inhibition rate (NCI-N87 tumor cells; [4]): 95%
T/C (NCI-N87 tumor cells; [4]): 5%
Average Tumor Volume Day 0 (NCI-N87 tumor cells; 5 mg/kg p.o. once daily): 116.9 ± 7.8 mm^3
Average Tumor Volume Day 21 (NCI-N87 tumor cells; [5]): 49.0 ± 3.9 mm^3
Inhibition rate (NCI-N87 tumor cells; [5]): 157%
T/C (NCI-N87 tumor cells; [5]): −57%
Average Tumor Volume Day 0 (NCI-N87 tumor cells; 10 mg/kg p.o. once daily): 114.8 ± 7.8 mm^3
IC50 [1]: 1.4 nM

Structure (SMILES): COCCOc1cc2ncnc(Nc3ccc(F)c(Cl)c3)c2cc1NC(=O)/C=C/CN1CC[C@H]1COC [Example 7, (S,E)-N-(4-(3-chloro-4-fluorophenylamino)-7-(2-methoxyethoxy)quinazolin-6-yl)-4-(2-(methoxymethyl)azetidin-1-yl)but-2-enamide]
IC50 [1]: 5.8 nM

Structure (SMILES): COc1cc2ncnc(Nc3ccc(F)c(Cl)c3)c2cc1NC(=O)/C=C/CN1CCC1CO (centres unmarked) [Example 1, (E)-N-(4-(3-chloro-4-fluorophenylamino)-7-methoxyquinazolin-6-yl)-4-(2-(hydroxymethyl)azetidin-1-yl)but-2-enamide]
IC50 [2]: 5 nM
IC50 [1]: 2.3 nM

Further lines, with some results ahead:

IC50 [1]: 2 nM
Structure (SMILES): CCOc1cc2ncnc(Nc3ccc(F)c(Cl)c3)c2cc1NC(=O)/C=C/CN1CC[C@@H]1COC [Example 4, (R,E)-N-(4-(3-chloro-4-fluorophenylamino)-7-ethoxyquinazolin-6-yl)-4-(2-(methoxymethyl)azetidin-1-yl)but-2-enamide]
Average Tumor Volume Day 21 (NCI-N87 tumor cells; [3]): 436.6 ± 60.5 mm^3
Inhibition rate (NCI-N87 tumor cells; [3]): 73%
T/C (NCI-N87 tumor cells; [3]): 27%
Average Tumor Volume Day 0 (NCI-N87 tumor cells; 2 mg/kg p.o. once daily): 105.6 ± 9.9 mm^3
Average Tumor Volume Day 21 (NCI-N87 tumor cells; [4]): 49.7 ± 5.4 mm^3
Inhibition rate (NCI-N87 tumor cells; [4]): 154%
T/C (NCI-N87 tumor cells; [4]): −54%
Average Tumor Volume Day 0 (NCI-N87 tumor cells; 5 mg/kg p.o. once daily): 109.1 ± 10.1 mm^3

IC50 [1]: 25 nM
Structure (SMILES): COC[C@@H]1CCN1C/C=C/C(=O)Nc1cc2c(Nc3ccc(F)c(Cl)c3)ncnc2cc1OC[C@H]1COCCO1 [Example 15, (E)-N-(7-(((R)-1,4-dioxan-2-yl)methoxy)-4-(3-chloro-4-fluorophenylamino)quinazolin-6-yl)-4-((S)-2-(methoxymethyl)azetidin-1-yl)but-2-enamide]

IC50 [1]: 21.7 nM
Structure (SMILES): COC[C@@H]1CCN1C/C=C/C(=O)Nc1cc2c(Nc3ccc(F)c(Cl)c3)ncnc2cc1OCC1CC1 [Example 10, (S,E)-N-(4-(3-chloro-4-fluorophenylamino)-7-(cyclopropylmethoxy)quinazolin-6-yl)-4-(2-(methoxymethyl)azetidin-1-yl)but-2-enamide]

IC50 [1]: 6.6 nM
Structure (SMILES): COC[C@H]1CCN1C/C=C/C(=O)Nc1cc2c(Nc3ccc(F)c(Cl)c3)ncnc2cc1OCC1CC1 [Example 9, (R,E)-N-(4-(3-chloro-4-fluorophenylamino)-7-(cyclopropylmethoxy)quinazolin-6-yl)-4-(2-(methoxymethyl)azetidin-1-yl)but-2-enamide]
Average Tumor Volume Day 21 (NCI-N87 tumor cells; [4]): 349.3 ± 43.8 mm^3
Inhibition rate (NCI-N87 tumor cells; [4]): 81%
T/C (NCI-N87 tumor cells; [4]): 19%
Average Tumor Volume Day 0 (NCI-N87 tumor cells; 5 mg/kg p.o. once daily): 124.1 ± 8.5 mm^3
Average Tumor Volume Day 21 (NCI-N87 tumor cells; [5]): 60.3 ± 6.9 mm^3
Inhibition rate (NCI-N87 tumor cells; [5]): 150%
T/C (NCI-N87 tumor cells; [5]): −50%
Average Tumor Volume Day 0 (NCI-N87 tumor cells; 10 mg/kg p.o. once daily): 120.2 ± 13.0 mm^3

IC50 [1]: 2.9 nM
Structure (SMILES): COC[C@H]1CCN1C/C=C/C(=O)Nc1cc2c(Nc3ccc(F)c(Cl)c3)ncnc2cc1OC[C@H]1COCCO1 [Example 14, (E)-N-(7-(((R)-1,4-dioxan-2-yl)methoxy)-4-(3-chloro-4-fluorophenylamino)quinazolin-6-yl)-4-((R)-2-(methoxymethyl)azetidin-1-yl)but-2-enamide]

IC50 [1]: 17.5 nM
Structure (SMILES): O=C(/C=C/CN1CCC1CO)Nc1cc2c(Nc3ccc(F)c(Cl)c3)ncnc2cc1OC[C@@H]1COCCO1 (stereo partly drawn) [Example 16, (E)-N-(7-(((S)-1,4-dioxan-2-yl)methoxy)-4-(3-chloro-4-fluorophenylamino)quinazolin-6-yl)-4-(2-(hydroxymethyl)azetidin-1-yl)but-2-enamide]
IC50 [2]: 39.5 nM

IC50 [1]: 22.2 nM
Structure (SMILES): COC[C@@H]1CCN1C/C=C/C(=O)Nc1cc2c(Nc3ccc(F)c(Cl)c3)ncnc2cc1OC[C@H]1[C@@H]2COC[C@@H]21 [Example 20, (E)-N-(7-((1R,5S,6r)-3-oxabicyclo[3.1.0]hexan-6-ylmethoxy)-4-(3-chloro-4-fluorophenylamino)quinazolin-6-yl)-4-((S)-2-(methoxymethyl)azetidin-1-yl)but-2-enamide]

IC50 [1]: 1.6 nM
Structure (SMILES): COC[C@H]1CCN1C/C=C/C(=O)Nc1cc2c(Nc3ccc(F)c(Cl)c3)ncnc2cc1OC [Example 2, (R,E)-N-(4-(3-chloro-4-fluorophenylamino)-7-methoxyquinazolin-6-yl)-4-(2-(methoxymethyl)azetidin-1-yl)but-2-enamide]
Average Tumor Volume Day 21 (NCI-N87 tumor cells; [3]): 584.4 ± 71.3 mm^3
Inhibition rate (NCI-N87 tumor cells; [3]): 61%
T/C (NCI-N87 tumor cells; [3]): 39%
Average Tumor Volume Day 0 (NCI-N87 tumor cells; 2 mg/kg p.o. once daily): 113.3 ± 4.4 mm^3
Average Tumor Volume Day 21 (NCI-N87 tumor cells; [4]): 54.3 ± 3.8 mm^3
Inhibition rate (NCI-N87 tumor cells; [4]): 154%
T/C (NCI-N87 tumor cells; [4]): −54%
Average Tumor Volume Day 0 (NCI-N87 tumor cells; 5 mg/kg p.o. once daily): 117.6 ± 7.2 mm^3
IC50 [2]: 1.6 nM

IC50 [1]: 21.5 nM
Structure (SMILES): COC[C@@H]1CCN1C/C=C/C(=O)Nc1cc2c(Nc3ccc(F)c(Cl)c3)ncnc2cc1OC [Example 3, (S,E)-N-(4-(3-chloro-4-fluorophenylamino)-7-methoxyquinazolin-6-yl)-4-(2-(methoxymethyl)azetidin-1-yl)but-2-enamide]
IC50 [2]: 14.2 nM

IC50 [1]: 2.7 nM
Structure (SMILES): O=C(/C=C/CN1CCC1CO)Nc1cc2c(Nc3ccc(F)c(Cl)c3)ncnc2cc1OC[C@H]1COCCO1 (stereo partly drawn) [Example 13, (E)-N-(7-(((R)-1,4-dioxan-2-yl)methoxy)-4-(3-chloro-4-fluorophenylamino)quinazolin-6-yl)-4-(2-(hydroxymethyl)azetidin-1-yl)but-2-enamide]
IC50 [2]: 13.5 nM
